This note sets out measurements from patent US6294674A, “Dibenzofuran sulfonamide matrix metalloproteinase inhibitors” (priority 1999, dated 2001).

Read-outs that look alike come from different tables or passages of the source.

The target of experiment [1] is gelatinase A catalytic domain (MMP02). Kind of experiment: Thiopeptolide assay, gelatinase A catalytic domain (GCD, MMP02). The format is biochemical. The protocol: (§1) Hydrolysis of the thiopeptolide substrate Ac-Pro-Leu-Gly-thioester-Leu-Leu-Gly-OEt (Bachem) is used as the primary screen to determine IC50 values for MMP inhibitors. A 100 μL reaction contains 1 mM 5,5'-dithiobis(2-nitrobenzoic acid) (DTNB), 100 μM substrate, 0.1% Brij, enzyme, and inhibitor in the appropriate reaction buffer. Activated full-length enzymes are assayed at 5 nM, Stromelysin Catalytic Domain (SCD) at 10 nM, and Gelatinase A Catalytic Domain (GaCD) at 1 nM. Inhibitors are screened from 100 μM to 1 nM. Full-length enzymes are assayed in 50 mM HEPES, 10 mM CaCl2, pH 7.0; SCD in 50 mM MES, 10 mM CaCl2, pH 6.0; and GaCD in 50 mM MOPS, 10 mM CaCl2, 10 μM ZnCl2, pH 7.0.

Experiment [2] has as its target T1, stromelysin-1 catalytic domain (MMP03) (Homo sapiens, UniProt P08254).
T1 construct: SCD (stromelysin-1 catalytic domain); made in house; host or cells: Escherichia coli
Kind of experiment: Thiopeptolide assay, stromelysin-1 catalytic domain (SCD, MMP03). The format is biochemical. The protocol:
as §1

A further experiment concerns the target T2, MMP01 (Homo sapiens, UniProt P03956).
T2 construct: purchased Washington University School of Medicine, St. Louis, Mo
T2 sequence (P03956 100-469): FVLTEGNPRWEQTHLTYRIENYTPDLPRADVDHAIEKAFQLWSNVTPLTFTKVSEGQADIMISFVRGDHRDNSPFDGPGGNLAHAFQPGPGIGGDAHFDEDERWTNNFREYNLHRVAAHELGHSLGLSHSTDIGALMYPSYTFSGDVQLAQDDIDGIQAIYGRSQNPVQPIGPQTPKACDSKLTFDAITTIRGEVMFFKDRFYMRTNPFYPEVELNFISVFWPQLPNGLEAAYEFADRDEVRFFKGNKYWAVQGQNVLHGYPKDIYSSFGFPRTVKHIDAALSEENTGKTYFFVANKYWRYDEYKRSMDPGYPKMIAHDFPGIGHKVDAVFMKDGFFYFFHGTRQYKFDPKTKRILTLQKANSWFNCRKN
Description: Thiopeptolide assay, MMP01. The format is biochemical. The protocol:
(§2) MMP01, MMP07, MMP09, and MMP13 activity was assayed in a method similar to MMP02 and MMP03 (SCD and GCD). MMP01 and MMP09 can be obtained from Washington University School of Medicine, St. Louis, Mo. MMP07 can be obtained in accordance with the known procedure set forth by Ye QZ, Johnson L. L., and Baragi V., "Gene Syntheses and Expression in E. coli for PUMP, a Human Matrix Metalloproteinase" Biochem. and Biophys. […] MMP 13 can be obtained in accordance with the known procedure set forth by Freije J. M. P., et al., "Molecular Cloning and Expression of Collegenase-3, a Novel Human Matrix Metalloproteinase Produced by Breast Carcinomas" J. Bio.
as §1

For another experiment, the target named is T3, MMP07 (Homo sapiens, UniProt P09237).
T3 construct: made in house; host or cells: Escherichia coli
T3 sequence (P09237 95-267): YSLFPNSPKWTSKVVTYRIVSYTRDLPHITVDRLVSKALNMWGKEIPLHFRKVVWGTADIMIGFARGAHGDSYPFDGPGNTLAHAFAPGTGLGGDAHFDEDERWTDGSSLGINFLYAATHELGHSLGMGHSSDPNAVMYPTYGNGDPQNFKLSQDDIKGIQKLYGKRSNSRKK
Kind of experiment: Thiopeptolide assay, MMP07. The format is biochemical. As for the experimental part: as §2, §1

Another experiment has as its system MMP-13CD. Kind of experiment: Thiopeptolide assay, MMP-13CD. It counts as biochemical, human. As to conditions: Tables 2, 3, 5, 7. The protocol:
IC50 values were determined using a thiopeptolide substrate, Ac-Pro-Leu-Gly-thioester-Leu-Leu-Gly-OEt (Ye Q.-Z., Johnson L. L., Hupe D. J., and Baragi V., "Purification and Characterization of the Human Stromelysin Catalytic Domain Expressed in Escherichia coli," Biochemistry, 1992;31:11231-11235). MMP01, MMP07, MMP09, and MMP13 activity was assayed in a method similar to MMP02 and MMP03 (SCD and GCD). MMP01 and MMP09 can be obtained from Washington University School of Medicine, St. Louis, Mo. MMP07 can be obtained in accordance with the known procedure set forth by Ye QZ, Johnson L. L., and Baragi V., "Gene Syntheses and Expression in E. coli for PUMP, a Human Matrix Metalloproteinase" Biochem. and Biophys. Res. Comm., 1992; 186:143-149. MMP 13 can be obtained in accordance with the known procedure set forth by Freije J. M. P., et al., "Molecular Cloning and Expression of Collegenase-3, a Novel Human Matrix Metalloproteinase Produced by Breast Carcinomas" J. Bio. Chem., 1994;269:16766-6773.
as §1, with “7.0. The change in absorbance at 405 riM is monitored on a ThermoMax microplate reader at room temperature continuously for 20 minutes.” for “7.0.”

Where [3] appears, read: Table 1, GCD, read-out: IC50 MMP02.
The mark [4] stands for this setting: Table 1, SCD, read-out: IC50 MMP03.
Where [5] appears, read: Tables 2, 3, 5, 7, read-out: IC50 MMP1.
The mark [6] stands for this setting: Tables 2, 3, 5, 7, read-out: IC50 MMP-2CD.
The mark [7] stands for this setting: Tables 2, 3, 5, 7, read-out: IC50 MMP 3CD.
The mark [8] stands for this setting: Tables 2, 3, 5, 7, read-out: IC50 MMP-7.

T1 sequence (P08254 100-272 limits assumed): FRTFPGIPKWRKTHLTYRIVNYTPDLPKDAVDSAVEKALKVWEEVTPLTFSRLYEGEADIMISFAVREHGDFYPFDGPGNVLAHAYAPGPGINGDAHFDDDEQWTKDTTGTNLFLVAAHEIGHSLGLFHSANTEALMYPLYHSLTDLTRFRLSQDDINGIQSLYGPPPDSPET

What is called IC50 is the point on the concentration scale where inhibition reaches its midpoint. Regarding `CC(C)C[C@H](CNS(=O)(=O)c1ccc2oc3ccccc3c2c1)CC(=O)O` [Example 2, 2(S)-3-[(Dibenzofuran-2-sulfonylamino)-methyl]-5-methyl-hexanoic acid], the IC50 was determined as 100 µM in experiment [1] (setting [3]) and 86 µM in experiment [2] (setting [4]).

`O=C(NCCCC[C@H](NS(=O)(=O)c1ccc2oc3ccccc3c2c1)C(=O)O)OCc1ccccc1` [Example 3, 6-Benzyloxycarbonylamino-2-(dibenzofuran-2-sulfonylamino)-hexanoic acid]: the IC50 on MMP01 (Table 1, read-out: IC50 MMP01) is 62 µM; in experiment [1] (setting [3]), 0.35 µM; in experiment [2] (setting [4]) it was 0.18 µM; on MMP07 (Table 1, read-out: IC50 MMP07), 3.3 µM.

Turning to `CC(C)(Oc1ccc(Cl)cc1)C(=O)NCCCCC(NS(=O)(=O)c1ccc2oc3ccccc3c2c1)C(=O)O` (stereo not drawn) [Example A1, 6-[2-(4-Chloro-phenoxy)-2-methyl-propionylamino]-2-(dibenzofuran-2-sulfonylamino)-hexanoic acid], the IC50 on MMP01 (setting [5]) was greater than 100 µM; in experiment [1] (setting [6]), 5.2 µM; in experiment [2] (setting [7]) it was 9.6 µM; on MMP07 (setting [8]) it was greater than 100 µM; in the experiment on MMP-13CD it was 11 µM.

As for `O=C(Cc1ccccc1C(F)(F)F)NCCCCC(NS(=O)(=O)c1ccc2oc3ccccc3c2c1)C(=O)O` (stereo not drawn) [Example A4, 2-(Dibenzofuran-2-sulfonylamino)-6-[2-(2-trifluoromethyl-phenyl)-acetylamino]-hexanoic acid], the IC50 was greater than 100 µM at MMP01 (setting [5]); 2.7 µM in experiment [1] (setting [6]); 4.6 µM in experiment [2] (setting [7]); greater than 100 µM at MMP07 (setting [8]); 3.7 µM in the experiment with MMP-13CD.

For `O=C(Cc1cccs1)NCCCCC(NS(=O)(=O)c1ccc2oc3ccccc3c2c1)C(=O)O` (stereo not drawn) [Example A5, 2-(Dibenzofuran-2-sulfonylamino)-6-(2-thiophen-2-yl-acetylamino)-hexanoic acid], the IC50 at MMP01 (setting [5]) is greater than 100 µM; in experiment [1] (setting [6]), 0.9 µM; in experiment [2] (setting [7]) it was 0.5 µM; on MMP07 (setting [8]) it was 35.6 µM; with MMP-13CD, 1.1 µM.

As for `CCC(Oc1ccccc1)C(=O)NCCCCC(NS(=O)(=O)c1ccc2oc3ccccc3c2c1)C(=O)O` (stereo not drawn) [Example A6, 2-(Dibenzofuran-2-sulfonylamino)-6-(2-phenoxy-butrylamino)-hexanoic acid], the IC50 on MMP01 (setting [5]) is greater than 100 µM; in experiment [1] (setting [6]), 1.5 µM; in experiment [2] (setting [7]), 3.9 µM; at MMP07 (setting [8]), greater than 100 µM; with MMP-13CD, 8 µM.

Regarding `O=C(COc1ccccc1)NCCCCC(NS(=O)(=O)c1ccc2oc3ccccc3c2c1)C(=O)O` (stereo not drawn) [Example A8, 2-(Dibenzofuran-2-sulfonylamino)-6-(2-phenoxy-acetylamino)-hexanoic acid], the IC50 on MMP01 (setting [5]) was greater than 100 µM; in experiment [1] (setting [6]) it was 1.6 µM; in experiment [2] (setting [7]), 2.5 µM; at MMP07 (setting [8]), greater than 100 µM; in the experiment with MMP-13CD, 4.8 µM.

`CC(C)(C)c1ccc(OCC(=O)NCCCCC(NS(=O)(=O)c2ccc3oc4ccccc4c3c2)C(=O)O)cc1` (stereo not drawn) [Example A10, 6-[2-(4-tert-Butyl-phenoxy)actylamino]-2-(dibenzofuran-2-sulfonylamino)-hexanoic acid]: the IC50 at MMP01 (setting [5]) was greater than 100 µM; in experiment [1] (setting [6]), 9.4 µM; in experiment [2] (setting [7]) it was 26.5 µM; on MMP07 (setting [8]), greater than 100 µM; in the experiment with MMP-13CD, 63 µM.

For the molecule `O=C(CC1=CCCC1)NCCCCC(NS(=O)(=O)c1ccc2oc3ccccc3c2c1)C(=O)O` (stereo not drawn) [Example A12], the IC50 on MMP01 (setting [5]) is greater than 100 µM; in experiment [1] (setting [6]) it was 0.6 µM; in experiment [2] (setting [7]) it was 1 µM; at MMP07 (setting [8]), 64.9 µM; in the experiment with MMP-13CD it was 1.7 µM.

`COc1ccc(OCC(=O)NCCCCC(NS(=O)(=O)c2ccc3oc4ccccc4c3c2)C(=O)O)cc1` (stereo not drawn) [Example A13, 2-(Dibenzofuran-2-sulfonylamino)-6-[2-(4-methoxy-phenoxy)-acetylamino]-hexanoic acid]: the IC50 is greater than 100 µM at MMP01 (setting [5]); 1.2 µM in experiment [1] (setting [6]); 2.3 µM in experiment [2] (setting [7]); greater than 100 µM at MMP07 (setting [8]); 7.3 µM with MMP-13CD.

On to `O=C(COc1cccc2ccccc12)NCCCCC(NS(=O)(=O)c1ccc2oc3ccccc3c2c1)C(=O)O` (stereo not drawn) [Example A14, 2-(Dibenzofuran-2-sulfonylamino)-6-[2-(naphthalen-1-yloxy)acetylamino]-hexanoic acid], for which the IC50 is greater than 100 µM on MMP01 (setting [5]); 7.8 µM in experiment [1] (setting [6]); 5.2 µM in experiment [2] (setting [7]); greater than 100 µM at MMP07 (setting [8]); 42.6 µM in the experiment with MMP-13CD.

As to `Cc1cc(OCCCC(=O)NCCCCC(NS(=O)(=O)c2ccc3oc4ccccc4c3c2)C(=O)O)ccc1Cl` (stereo not drawn) [Example A16, 6-[4-(4-Chloro-3-methyl-phenoxy)-butyrylamino]-2-(dibenzofuran-2-sulfonylamino)-hexanoic acid], the IC50 at MMP01 (setting [5]) is greater than 100 µM; in experiment [1] (setting [6]), 5.5 µM; in experiment [2] (setting [7]), 6.5 µM; at MMP07 (setting [8]) it was greater than 100 µM; in the experiment on MMP-13CD, 34.4 µM.

With `COc1ccc(CCC(=O)NCCCCC(NS(=O)(=O)c2ccc3oc4ccccc4c3c2)C(=O)O)cc1` (stereo not drawn) [Example A17, 2-(Dibenzofuran-2-sulfonylamino)-6-[3-(4-methoxy-phenyl)-propionylamino]-hexanoic acid], the IC50 on MMP01 (setting [5]) is greater than 100 µM; in experiment [1] (setting [6]) it was 0.7 µM; in experiment [2] (setting [7]), 0.9 µM; on MMP07 (setting [8]), 53.3 µM; in the experiment on MMP-13CD, 4.4 µM.

In the case of `O=C(Cc1ccc2c(c1)OCO2)NCCCCC(NS(=O)(=O)c1ccc2oc3ccccc3c2c1)C(=O)O` (stereo not drawn) [Example A19, 6-(2-Benzo[1,3]dioxol-5-yl-acetylamino)-2-(dibenzofuran-2-sulfonylamino)-hexanoic acid], the IC50 on MMP01 (setting [5]) is greater than 100 µM; in experiment [1] (setting [6]), 1 µM; in experiment [2] (setting [7]), 1.7 µM; on MMP07 (setting [8]), 92.9 µM; in the experiment on MMP-13CD, 3 µM.
